Test results taken from paper PMC12036875, “Mitochondria-targeting natural product rhein conjugated with dichloroacetate as the dual inhibitor of glycolysis and oxidative phosphorylation to off energize cancer cells and induce ROS storm” (Theranostics, 2025).

Assays:
4T1 cells [1] = experiment: Scratch (migration) assay; type: cell-based, Mouse; conditions: 6.25 μM, 24 h
Description: Cellular migration is the pivotal characteristic of cancer metastasis. […] Considering the inhibition of the glycolysis pathway resulting in a decrease of lactate, we studied the migration behavior of aggressive 4T1 cells in vitro. The results of scratch assay were shown in Figure S15, after being treated with different drugs for 24 h, the wound borders of 4T1 cells gradually got closer in control, rhein, DCA and R + D groups, and the migration rates reached approximately 40%.
4T1 cells were seeded in 6-well plate and incubated for 24 h. A straight scratch line across the cell monolayer was marked at the bottom of the plate with 200 μL pipette tip. Plate was washed twice with PBS to remove the detached cells. 6.25 μM of indicated drugs were added into each well, then the wound borders of cells were imaged at 0 h, 12 h and 24 h, respectively. The migration rate was calculated as follows: migration rate (%) = (initial scratch area - final scratch area) / initial scratch area × 100%, and the scratch area was processed with the Image J derivatives Fiji software.

4T1 cells [2] = experiment: Immunogenic cell death detection in vitro (HMGB1, CRT, extracellular ATP); type: cell-based, Mouse
Description: It is known that mitochondrial dysfunction occasioned by ROS triggers immunogenic cell death (ICD), characterized by the release of DAMPs from tumor cells, such as high mobility group box 1 (HMGB1), calreticulin (CRT) and ATP. These DAMPs directly reactivated anti-tumor immune response of TAMs of in vivo [33]. Given the encouraging results of ROS generation, the ICD effect of Rhein-DCA conjugate was consequently explored in vitro. HMGB1 is a type of nuclear protein, which would be released to extracellular during the ICD process. […] This was because rhein, DCA, and the R + D cannot induce adequate production of ROS and sufficient ATP depletion (Figure 5F). We further detected the HMGB1 content in the cell culture media with an ELISA kit. […] This further confirmed that Rhein-DCA effectively promoted the release of HMGB1 from the cell nucleus to the extracellular space (Figure S20). Unlike HMGB1, abundant CRT often exposed on the cell membrane surface of tumor cells. Flow cytometry was employed to analyze CRT protein of 4T1 cells. […] The secreted ATP from 4T1 cells with immunogenicity was further measured to evaluate the ICD effect after being cultured with various drugs for 6, 12 and 24 h. […] There was no apparent distinction between rhein, DCA, R + D groups and the control group when co-cultured for 6 or 12 h. A slight difference was observed until the cultivation time was prolonged to 24 h. […] This reminded us that the Rhein-DCA conjugate may enhance tumor treatment by promoting ICD-mediated immunotherapy.
4T1 cells were seeded in 6-well plates and confocal dishes with an identical density of 10 × 10^4 cells per well for 24 h cultivation. The cells were processed with indicated drugs at a concentration of 6.25 μM for another 24 h. The cells were washed twice with PBS and then fixed with 4%-paraformaldehyde (1 mL) for 15 min at 37 °C, followed by two washes with PBS. (1) The cells on confocal dishes were next permeabilized with triton-X-100 for 15 min at room temperature, blocked with BSA solution (5% in PBS) for 1 h at room temperature, and further incubated with rabbit anti-mouse HMGB-1 (1:500) overnight at 4 °C. Afterwards, the cells were incubated with secondary antibody (1:500) for 1 h at room temperature, washed with PBS, and then stained with Hoechst 33342 (10 μg/mL) for 10 min in the dark at room temperature. Finally, confocal microscope was employed to observe the HMGB1 protein within the cells. The secretion of HMGB1 in culture medium was detected by ELISA assay. The culture media was collected and centrifuged at 1000 G for 20 min, the supernatant was collected and detected with ELISA kit according to the manufacturer's protocol. (2) The cells in the 6-well plates were collected in 1.5 mL tubes, stained with rabbit anti-mouse calreticulin (1:1000) for 30 min at 4 °C, washed twice with PBS, and then analyzed with flow cytometry. (3) For the extracellular ATP content, the cells were cultured for 6, 12 and 24 h at 37 °C, and the medium were collected and centrifuged at 1000 G for 20 min, the supernatant was collected and detection with ELISA kit according to the manufacturer's protocol.

4T1 tumor = experiment: In vivo antitumor effect, 4T1 tumor xenograft model; parameters: species or system Balb/c mice; conditions: for tumor H&E and TUNEL staining: 20 mg/kg oral; for tumor H&E and TUNEL staining / tumor growth compared with vehicle group: 24 days; for tumor growth compared with vehicle group: oral gavage daily, n = 5
Description: The antitumor efficiency of Rhein-DCA conjugate in vivo was explored using the female Balb/c mice with 4T1 tumor xenografts model. Briefly, 4T1-tumor bearing mice were randomly divided into vehicle, rhein, DCA, R + D and Rhein-DCA conjugate groups when the tumor became apparent (n = 5). Mice were treated daily with vehicle (2.85% anhydrous ethanol / 10% cremophor / 0.02% 0.1 M HCl / 87.15% saline) and rhein, DCA, R + D and Rhein-DCA conjugate (20 mg/kg) by oral gavage for 24 days. The body weight and tumor volume of mice were monitored and recorded every two days. […] The photograph and the weight information of all excised tumor xenografts further visually confirmed the antitumor effect of Rhein-DCA conjugate in vivo (Figure 6C-D). […] Due to suppression of tumor growth, the survival of mice treated with Rhein-DCA conjugate was improved in contrast to vehicle group (Figure S22).
Balb/c female mice (6 weeks) and Sprague-Dawley (SD) rats were purchased from Hubei provincial laboratory animal research center (Wuhan, P. R. China). All related animal experiments were approved by the Animal Welfare Committee of the Animal Experiment Center of Wuhan University. All Balb/c mice were shaved two days in advance and then subcutaneously injected with 4T1 cells (5 × 10^6 cells in 50 μL of PBS per mouse) into the back of the right leg. The 4T1 tumor bearing mice were randomly divided into five groups (5 mice per group) which containing vehicle, rhein, DCA, R + D and Rhein-DCA groups when the tumor volumes reached about 100~120 mm^3. The tumor size was calculated with the following formula:
Subsequently, mice were orally treated with vehicle (2.85% anhydrous ethanol / 10% cremophor / 0.02% HCl (0.1 M) / 87.15% saline) and rhein, DCA, R + D and Rhein-DCA (20 mg/kg, suspended in 2.85% anhydrous ethanol / 10% cremophor / 0.02% HCl (0.1 M) / 87.15% saline) every day. The body weight and tumor size changes of each mouse were measured and recorded every two days.
After 24 days, the mice were euthanized, and then tumors were excised to photographing and weighting. The tumors in each group were performed with TUNEL (green fluorescence) and H&E assay. In addition, immunohistochemical staining was conducted on the tumor tissue to determine the pPDHA1-Ser^293 protein level. Besides, immunofluorescence staining was used to detect the expression of HMGB1 protein in the tumor.

Row | Compound | migration rate (4T1 cells [1]) | HMGB1 in cell nucleus (CLSM red fluorescence) (4T1 cells [2]; 6.25 μM, 24 h) | tumor H&E and TUNEL staining (4T1 tumor) | tumor growth compared with vehicle group (4T1 tumor; 20 mg/kg) | surface-exposed CRT (4T1 cells [2]; 6.25 μM, 24 h, flow cytometry) | HMGB1 secreted into the culture medium (ELISA) (4T1 cells [2]; 6.25 μM, 24 h, vs control, rhein, DCA, R + D) | extracellular ATP in supernatants (4T1 cells [2]; 6 h to 24 h, vs other groups) | survival of mice in contrast to vehicle group (4T1 tumor; 20 mg/kg, oral)
1 | O=C(O)C(Cl)Cl [DCA, Dichloroacetate] | approximately 40% | almost completely located in nuclei | mild apoptosis and necrosis | slight inhibition |  |  |  | 
2 | O=C(O)c1cc(O)c2c(c1)C(=O)c1cccc(O)c1C2=O [Rhein, 4,5-dihydroxyanthraquinone-2-carboxylic acid] | approximately 40% | almost completely located in nuclei | mild apoptosis and necrosis | slight inhibition |  |  |  | 
3 | O=C(OCCOC(=O)C(Cl)Cl)c1cc(O)c2c(c1)C(=O)c1cccc(O)c1C2=O [Rhein-DCA] | 8% | disappeared | more extensive tissue necrosis and considerable cell apoptosis | significant inhibition | 44% | increased significantly | higher | improved
